Values quoted from earlier work, collected in patent publication US10960001B2, “Opioid agonist / antagonist combination dosage forms” (KASHIV PHARMA LLC, priority 2017, dated 2021).

Experiments:
[1] = 25° C.

Compound	solubility in water [1]	oral bioavailability (after intake of therapeutic doses)	bioavailability with oral ingestion (oral ingestion)
C=CCN1CC[C@]23c4c5ccc(O)c4O[C@H]2C(=O)CC[C@@]3(O)[C@H]1C5 [Naloxone free base, naloxone]	about 1.4 mg/mL		
C=CCN1CC[C@]23c4c5ccc(O)c4O[C@H]2C(=O)CC[C@@]3(O)[C@H]1C5 [Naloxone, naloxone]		2-3%	about 2%
